# Results published in US20150087673A1, “METHODS FOR USING AND BIOMARKERS FOR AMPK-ACTIVATING COMPOUNDS” (RIGEL PHARMACEUTICALS, INC., priority 2013, published 2015).
# Tested on: AMPK
# Assay: AMPK activation assay (enzyme-linked immunosorbent assay)
# Type: cell-based
# In short: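 Test compounds were added, and kinase activation was then detected by immunoassay following established kit procedures.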
row,EC50 [nM],SMILES
1,< 500,"N#Cc1ccc(CN2CCC(NC(=O)c3ccc(C(=O)N4CCC(S(=O)(=O)c5ccc(F)cc5)CC4)cn3)CC2)cc1 [Compound 262, N-(1-(4-cyanobenzyl)piperidin-4-yl)-5-(4-(4-fluorophenylsulfonyl)piperidine-1-carbonyl)picolinamide]"
2,< 500,"N#Cc1ccc(OC2CCN(C(=O)c3ccc(C(=O)NC4CCN(Cc5cc(F)cc(F)c5)CC4)cn3)CC2)cc1 [Compound 322, 6-(4-(4-cyanophenoxy)piperidine-1-carbonyl)-N-(1-(3,5-difluorobenzyl)piperidin-4-yl)nicotinamide]"
3,< 500,"O=C(NC1CCN(Cc2cc(F)cc(F)c2)CC1)c1ccc(C(=O)N2CCC(Oc3ccc(F)c(F)c3)CC2)cn1 [Compound 297, N-(1-(3,5-difluorobenzyl)piperidin-4-yl)-5-(4-(3,4-difluorophenoxy)piperidine-1-carbonyl)picolinamide]"
4,1000 to 5000,"CC(C)N1CCN(C(=O)c2ccc(C(=O)NC3CCN(Cc4ccc(C#N)cc4)CC3)nc2)CC1 [Compound 84, N-(1-(4-cyanobenzyl)piperidin-4-yl)-5-(4-isopropylpiperazine-1-carbonyl)picolinamide]"
5,1000 to 5000,"O=C(NC1CCN(Cc2ccccc2)CC1)c1ccc(Nc2cccc(-c3ccccc3)c2)cn1 [Compound 114, N-(1-benzylpiperidin-4-yl)-5-(biphenyl-3-ylamino)picolinamide]"
6,< 500,"N#Cc1ccc(CN2CCC(NC(=O)c3ccc(C(=O)N4CC[C@H](Oc5ccc(F)cc5)C4)cn3)CC2)cc1 [Compound 270, (S)-N-(1-(4-cyanobenzyl)piperidin-4-yl)-5-(3-(4-fluorophenoxy)pyrrolidine-1-carbonyl)picolinamide]"
7,< 500,"N#Cc1ccc(OC2CCN(C(=O)c3ccc(C(=O)N[C@H]4CC[C@@H](Oc5ccc(F)cc5)CC4)nc3)CC2)cc1 [Compound 303, 5-(4-(4-cyanophenoxy)piperidine-1-carbonyl)-N-((cis)-4-(4-fluorophenoxy)cyclohexyl)picolinamide]"
8,1000 to 5000,"Cc1cc(CN2CCN(C(=O)c3ccc(C(=O)NC4CCN(Cc5ccccc5)CC4)nc3)CC2)no1 [Compound 85, N-(1-benzylpiperidin-4-yl)-5-(4-((5-methylisoxazol-3-yl)methyl)piperazine-1-carbonyl)picolinamide]"
9,< 500,"COc1ccc(C(=O)C2CCN(C(=O)c3ccc(C(=O)NC4CCN(Cc5cccc(OC(F)(F)F)c5)CC4)cn3)CC2)cc1 [Compound 424, 6-(4-(4-methoxybenzoyl)piperidine-1-carbonyl)-N-(1-(3-(trifluoromethoxy)benzyl)piperidin-4-yl)nicotinamide]"
10,> 10000,"N#Cc1ccc(CN2CCC(NC(=O)c3ccc(C(=O)NC4CCN(Cc5ccc(C#N)cc5)CC4)nn3)CC2)cc1 [Compound 386, N3,N6-bis(1-(4-cyanobenzyl)piperidin-4-yl)pyridazine-3,6-dicarboxamide]"
11,< 500,"COc1ccc(CN2CCC(NC(=O)c3ccc(C(=O)N4CCC(C(=O)c5ccc(F)cc5F)CC4)cn3)CC2)cc1 [Compound 331, 5-(4-(2,4-difluorobenzoyl)piperidine-1-carbonyl)-N-(1-(4-methoxybenzyl)piperidin-4-yl) picolinamide]"
12,< 500,"CS(=O)(=O)c1ccc(OC2CCN(C(=O)c3ccc(C(=O)NC4CCN(Cc5ccc(C#N)cc5)CC4)cn3)CC2)cc1 [Compound 397, N-(1-(4-cyanobenzyl)piperidin-4-yl)-6-(4-(4-(methylsulfonyl)phenoxy)piperidine-1-carbonyl)nicotinamide]"
13,< 500,"CS(=O)(=O)c1ccc(C(=O)C2CCN(C(=O)c3ccc(C(=O)NC4CCN(Cc5ccc(N6CCCC6)cc5)CC4)nc3)CC2)cc1 [Compound 233, 5-(4-(4-(methylsulfonyl)benzoyl)piperidine-1-carbonyl)-N-(1-(4-(pyrrolidin-1-yl)benzyl)piperidin-4-yl)picolinamide]"
14,< 500,"O=C(Nc1ccc(Oc2ccc(F)cc2)nc1)c1ccc(C(=O)N2CCC(C(=O)c3ccc(F)cc3F)CC2)nc1 [Compound 348, 6-(4-(2,4-difluorobenzoyl)piperidine-1-carbonyl)-N-(6-(4-fluorophenoxy)pyridin-3-yl)nicotinamide]"
15,< 500,"O=C(Nc1ccc(Oc2ccc(F)cc2)nc1)c1ccc(C(=O)N2CCC(C(=O)c3ccc(N4CCCC4)cc3)CC2)cn1 [Compound 368, N-(6-(4-fluorophenoxy)pyridin-3-yl)-5-(4-(4-(pyrrolidin-1-yl)benzoyl)piperidine-1-carbonyl)picolinamide]"
16,< 500,"COc1ccc(CN2CCC(NC(=O)c3ccc(C(=O)N4CCC(C(=O)c5ccc(F)cc5F)CC4)nc3)CC2)cc1 [Compound 347, 6-(4-(2,4-difluorobenzoyl)piperidine-1-carbonyl)-N-(1-(4-methoxybenzyl)piperidin-4-yl)nicotinamide]"
17,< 500,"COc1ccc(C(=O)C2CCN(C(=O)c3ccc(C(=O)NC4CCN(Cc5ccc(N6CCCC6)cc5)CC4)nc3)CC2)cc1 [Compound 194, 5-(4-(4-methoxybenzoyl)piperidine-1-carbonyl)-N-(1-(4-(pyrrolidin-1-yl)benzyl)piperidin-4-yl)picolinamide]"
18,< 500,"N#Cc1ccc(OC2CCN(C(=O)c3ccc(C(=O)N[C@H]4CC[C@@H](Oc5ccc(C#N)cc5)CC4)cn3)CC2)cc1 [Compound 321, N-((cis)-4-(4-cyanophenoxy)cyclohexyl)-6-(4-(4-cyanophenoxy)piperidine-1-carbonyl)nicotinamide]"
19,< 500,"N#Cc1ccc(-c2ccc(NC(=O)c3ccc(C(=O)N4CCN(Cc5ccc(F)cc5)CC4)cn3)cc2)cc1 [Compound 24, N-(4-(4-cyanophenyl)phenyl)-5-(4-(4-fluorobenzyl)piperazine-1-carbonyl)picolinamide]"
20,< 500,"Cc1nc(Oc2ccc(C#N)cc2)ccc1NC(=O)c1ccc(C(=O)N2CCC(C(=O)c3ccc(F)cc3F)CC2)nc1 [Compound 479, N-(6-(4-cyanophenoxy)-2-methylpyridin-3-yl)-6-(4-(2,4-difluorobenzoyl)piperidine-1-carbonyl)nicotinamide]"
21,< 500,"COc1ccc(OC2CCN(C(=O)c3ccc(C(=O)N[C@H]4CC[C@@H](Oc5ccc(OC)cc5)CC4)nc3)CC2)cc1 [Compound 186, N-((cis)-4-(4-methoxyphenoxy)cyclohexyl)-5-(4-(4-methoxyphenoxy)piperidine-1-carbonyl)picolinamide]"
22,< 500,"N#Cc1ccc(OC2CCN(C(=O)c3ccc(C(=O)NC4CCN(Cc5ccc(OC(F)(F)F)cc5)CC4)cn3)CC2)cc1 [Compound 338, 6-(4-(4-cyanophenoxy)piperidine-1-carbonyl)-N-(1-(4-(trifluoromethoxy)benzyl)piperidin-4-yl)nicotinamide]"
23,> 10000,"N#Cc1ccc(CN2CCC(NC(=O)c3ccc(C(=O)N4CCNCC4)cn3)CC2)cc1 [Compound 2, N-(1-(4-cyanobenzyl)piperidin-4-yl)-5-(piperazine-1-carbonyl)picolinamide]"
24,500 to 1000,"N#Cc1ccc(CN2CCC(Nc3ccc(C(=O)N4CCN(Cc5ccc(F)cc5)CC4)cn3)CC2)cc1 [Compound 36, (6-(4-(cyanobenzyl)piperidin-4-ylamino)pyridin-3-yl)(4-(4-fluorobenzyl)piperazin-1-yl)methanone]"
